Patent US20250340537A1, “PHARMACEUTICALLY ACTIVE COMPOUNDS, COMPOSITIONS, AND METHODS FOR MODULATING PENDRIN” (ARBORMED Co., Ltd., priority 2022, published 2025)

Biological target: T1, H723R-pendrin (Homo sapiens, UniProt O43511, H723R)
T1 construct: expressed in transfected cells; host or cells: PANC-1
T1 sequence (O43511 1-780 H723R): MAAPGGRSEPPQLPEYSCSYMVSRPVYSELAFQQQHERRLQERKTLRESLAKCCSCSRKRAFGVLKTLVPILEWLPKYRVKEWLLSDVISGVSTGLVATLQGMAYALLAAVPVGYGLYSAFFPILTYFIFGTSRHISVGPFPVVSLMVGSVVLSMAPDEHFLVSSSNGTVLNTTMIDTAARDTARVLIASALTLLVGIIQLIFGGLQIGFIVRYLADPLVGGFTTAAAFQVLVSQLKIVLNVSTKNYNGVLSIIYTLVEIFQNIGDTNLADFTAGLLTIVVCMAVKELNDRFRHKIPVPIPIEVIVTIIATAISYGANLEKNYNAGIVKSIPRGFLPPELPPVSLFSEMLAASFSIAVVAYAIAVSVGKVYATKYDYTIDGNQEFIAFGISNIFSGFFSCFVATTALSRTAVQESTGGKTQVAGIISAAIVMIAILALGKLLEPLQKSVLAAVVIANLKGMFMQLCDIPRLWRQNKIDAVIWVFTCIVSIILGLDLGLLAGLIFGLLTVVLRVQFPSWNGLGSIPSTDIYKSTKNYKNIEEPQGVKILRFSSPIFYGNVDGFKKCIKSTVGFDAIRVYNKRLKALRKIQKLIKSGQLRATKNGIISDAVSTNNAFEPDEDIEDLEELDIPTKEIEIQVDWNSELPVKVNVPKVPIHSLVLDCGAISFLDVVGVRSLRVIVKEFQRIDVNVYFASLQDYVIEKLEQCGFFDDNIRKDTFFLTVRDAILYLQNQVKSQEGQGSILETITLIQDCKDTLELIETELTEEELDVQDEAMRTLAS
Test: YFP fluorescence quenching assay (Cl−/I− exchange activity of pendrin)
Assay type: cell-based
Details: PANC-1 cells stably expressing human H723R-pendrin and YFP-F46L/H148Q/I152L; compound incubation 20-24 hours; iodide influx
Excerpt: Halide sensor YFP F46L/H148Q/I152L is quenched by halide ion like Iodide. When such YFP is expressed in a cell, it expresses in the cytoplasm.
To measure H723R-PDS activity, PANC-1 cells were stably transfected with halide sensors YFP-F46L/H148Q/I152L and H723R-PDS which has problems with membrane trafficking due to misfolding.
If the cell-treated drug is a corrector for H723R-PDS, H723R-PDS will translocate normally to the plasma membrane.
At this time, when treated with a high-concentration iodide solution outside the cell, iodide enters the cell due to the Cl−/I− exchange activity of pendrin, and the fluorescence of the halide sensor YFP decreases.
PANC-1 cells were cultured in Dulbecco's Modified Eagle's Medium with 10% fetal bovine serum, 2 mM glutamine, 100 units/ml penicillin and 100 µg/ml streptomycin. For high-throughput screening, PANC-1 cells were stably transfected with human H723R-pendrin and halide sensor YFP-F46L/H148Q/I152L.
PANC-1 cells expressing human H723R-pendrin and YFP-F46L/H148Q/I152L were plated in 96-well microplates at a density of 2×10^4 cells per well and grown for 20-24 hours at 37° C. (90% humidity 5% CO2). Then these cells were treated with 50 μl growth medium containing test compounds and incubated for 20-24 hours. For YFP quenching assay, each well of the 96-well plate was washed 2 times with 200 μl of PBS, and it was filled with 50 μl of HEPES-buffered solution (140 mM NaCl, 5 mM KCl, 1 mM MgCl2, 1 mM CaCl2, 10 mM D-glucose, 10 mM HEPES; pH 7.4 with NaOH). After 10 minutes of incubation at 37° C., the 96-well plate was moved on the FLUOstar Omega Microplate Reader (BMG Labtech, Ortenberg, Germany) for a fluorescence assay. Each well was assayed individually for H723R-pendrin mediated I^− influx by recording fluorescence (495±15 nm excitation, 520±20 nm emission) every 400 ms for 1 second (baseline). Then, 50 μL of NaI-substituted HEPES-buffered solution (NaI replacing NaCl) was added using a liquid injector at 1 second and YFP fluorescence was recorded every 400 ms for 10 seconds. The initial iodide influx rate was determined from the initial slope of fluorescence by nonlinear regression, after the infusion of iodide.
It is indicated as EC50 with the following key: A=EC50 less than 5 uM; B=EC50 greater than 5 uM, but less than 10 uM; C=EC50 greater than 10 uM.

SMILES | EC50
COc1ccc(-c2ccnc(C3=C(N)N(c4ccccc4F)CC3=O)n2)cc1OC [Compound 1] | > 10 µM
COc1ccc(-c2cnc(C3=C(N)N(c4ccccc4F)CC3=O)nc2)cc1OC [Compound 2] | > 10 µM
COc1ccc(-c2nccc(C3=C(N)N(c4ccccc4F)CC3=O)n2)cc1OC [Compound 5] | > 10 µM
COc1ccc(-c2cncc(C3=C(N)N(c4ccccc4Cl)CC3=O)c2)cc1OC [Compound 7] | > 10 µM
NC1=C(c2cncc(-c3ccc4c(c3)OCO4)n2)C(=O)CN1c1ccccc1Cl [Compound 10] | > 10 µM
NC1=C(c2cncc(-c3ccc4ocnc4c3)n2)C(=O)CN1c1ccccc1Cl [Compound 11] | > 10 µM
NC1=C(c2cncc(-c3ccc4nccnc4c3)n2)C(=O)CN1c1ccccc1Cl [Compound 12] | > 10 µM
COc1ccc(-c2cncc(C3=C(N)N(c4ccccc4Cl)CC3=O)n2)c(OC)c1 [Compound 20] | 5 to 10 µM
CNc1ccc(-c2cncc(C3=C(N)N(c4ccccc4Cl)CC3=O)n2)cc1NC [Compound 23] | > 10 µM
NC1=C(c2cncc(-c3cc(O)cc(O)c3)n2)C(=O)CN1c1ccccc1Cl [Compound 24] | > 10 µM
COC(CN1CCN(c2cncc(C3=C(N)N(c4ccccc4Cl)CC3=O)n2)CC1)OC [Compound 25] | > 10 µM
NC1=C(c2cncc(-c3ccc(O)cc3O)n2)C(=O)CN1c1ccccc1Cl [Compound 30] | > 10 µM
NC1=C(c2cncc(-c3ccc(OC(F)(F)F)c(O)c3)n2)C(=O)CN1c1ccccc1Cl [Compound 31] | > 10 µM
NC1=C(c2cncc(-c3ccc(O)c(OC(F)(F)F)c3)n2)C(=O)CN1c1ccccc1Cl [Compound 32] | 5 to 10 µM
NC1=C(c2cncc(-c3ccc4nc[nH]c4c3)n2)C(=O)CN1c1ccccc1Cl [Compound 34] | > 10 µM
NC1=C(c2cnc(-c3ccc(O)c(O)c3)cn2)C(=O)CN1c1ccccc1Cl [Compound 35] | > 10 µM
NC1=C(c2cncc(-c3cnc(O)c(O)c3)n2)C(=O)CN1c1ccccc1Cl [Compound 38] | > 10 µM

More lines, now with the values ahead:

EC50 | SMILES
> 10 µM | COc1ccc(-c2cccc(C3=C(N)N(c4ccccc4F)CC3=O)n2)cc1OC [Compound 3]
5 to 10 µM | COc1ccc(-c2cncc(C3=C(N)N(c4ccccc4F)CC3=O)n2)cc1OC [Compound 4]
5 to 10 µM | COc1ccc(-c2cncc(C3=C(N)N(c4ccccc4Cl)CC3=O)n2)cc1OC [Compound 6]
5 to 10 µM | COc1ccc(-c2cncc(C3=C(N)N(C4CCCC4)CC3=O)n2)cc1OC [Compound 14]
5 to 10 µM | COc1ccc(-c2cncc(C3=C(N)N(CC4CCCC4)CC3=O)n2)cc1OC [Compound 15]
> 10 µM | COc1cc2c(cc1OC)CN(c1cncc(C3=C(N)N(c4ccccc4Cl)CC3=O)n1)CC2 [Compound 16]
> 10 µM | COc1ccc(-c2cncc(C3=C(N)N(CCC(F)(F)F)CC3=O)n2)cc1OC [Compound 17]
> 10 µM | NC1=C(c2cncc(-c3ccc(O)c(O)c3)n2)C(=O)CN1CCC(F)(F)F [Compound 19]
> 10 µM | COc1cc(-c2cncc(C3=C(N)N(c4ccccc4Cl)CC3=O)n2)cnc1OC [Compound 21]
> 10 µM | COc1cc(OC)cc(-c2cncc(C3=C(N)N(c4ccccc4Cl)CC3=O)n2)c1 [Compound 22]
> 10 µM | CNc1ccc(-c2cncc(C3=C(N)N(CC(C)C)CC3=O)n2)cc1NC [Compound 26]
> 10 µM | CC(C)CN1CC(=O)C(c2cncc(-c3ccc4c(c3)n(C)c(=O)n4C)n2)=C1N [Compound 27]
> 10 µM | COc1ccc(-c2cncc(C3=C(N)N(c4ccccc4Cl)CC3=O)n2)cc1O [Compound 29]
> 10 µM | COc1ccc(-c2cncc(C3=C(N)N(CC4CCOC4)CC3=O)n2)cc1OC (stereo not shown) [Compound 36]
> 10 µM | COc1ccc(-c2cncc(C3=C(N)N(c4ccccc4OC)CC3=O)n2)cc1OC [Compound 37]
> 10 µM | COc1ccc(-c2cncc(C3=C(N)N(CC4CCNC4)CC3=O)n2)cc1OC (stereo not shown) [Compound 39]
> 10 µM | NC1=C(c2cncc(-c3ccc(O)c(O)c3)n2)C(=O)CN1CC1CCNC1 (stereo not shown) [Compound 40]
